Measurements taken from the NIST ThermoML archive (doi:10.1021/acs.jced.8b00176).

Experiment: xn = mol fraction of the nth substance listed
Details: 100 kPa, Liquid; for viscosity: Falling or rolling sphere viscometry; for speed of sound: Frequency=3 MHz, Single path-length method; for mass density: Vibrating tube method

CCCCn1cc[n+](C)c1.O=S(=O)([O-])C(F)(F)F [1-butyl-3-methylimidazolium trifluoromethanesulfonate] + CC#N
Details | mass density [kg/m3] | speed of sound [m/s] | viscosity [mPa·s]
298.15 K, x1 = 0.0911 | 958.58 | 1306.2 | 0.94
298.15 K, x1 = 0.2023 | 1074.82 | 1330.8 | 1.74
298.15 K, x1 = 0.3029 | 1137.12 | 1347.2 | 4.03
298.15 K, x1 = 0.3998 | 1179 | 1359.4 | 6.63
298.15 K, x1 = 0.4994 | 1211.16 | 1368.6 | 11.09
298.15 K, x1 = 0.5953 | 1234.14 | 1375.6 | 19.01
298.15 K, x1 = 0.7029 | 1255.85 | 1382.5 | 29.57
298.15 K, x1 = 0.8009 | 1271.78 | 1386.6 | 40.36
298.15 K, x1 = 0.9012 | 1285.59 | 1389.8 | 56.57
298.15 K, x1 = 1 | 1297.46 | 1393.2 | 82.38
303.15 K, x1 = 0.0911 | 954.576 | 1289.2 | 0.88
303.15 K, x1 = 0.2023 | 1070.41 | 1315.6 | 1.61
303.15 K, x1 = 0.3029 | 1132.76 | 1333 | 3.64
303.15 K, x1 = 0.3998 | 1174.94 | 1346.1 | 5.9
303.15 K, x1 = 0.4994 | 1207.1 | 1355.7 | 9.65
303.15 K, x1 = 0.5953 | 1230.08 | 1363.1 | 16.22
303.15 K, x1 = 0.7029 | 1251.97 | 1370.6 | 24.73
303.15 K, x1 = 0.8009 | 1267.97 | 1374.9 | 33.14
303.15 K, x1 = 0.9012 | 1281.58 | 1378.4 | 45.89
303.15 K, x1 = 1 | 1293.46 | 1382.8 | 66.69
308.15 K, x1 = 0.0911 | 949.838 | 1272.1 | 0.83
308.15 K, x1 = 0.2023 | 1066.01 | 1300.6 | 1.58
308.15 K, x1 = 0.3029 | 1128.52 | 1318.8 | 3.3
308.15 K, x1 = 0.3998 | 1170.95 | 1332.8 | 5.26
308.15 K, x1 = 0.4994 | 1202.79 | 1343 | 8.46
308.15 K, x1 = 0.5953 | 1225.98 | 1350.7 | 13.86
308.15 K, x1 = 0.7029 | 1247.9 | 1358.8 | 20.9
308.15 K, x1 = 0.8009 | 1264.18 | 1363.4 | 27.82
308.15 K, x1 = 0.9012 | 1277.73 | 1367 | 37.7
308.15 K, x1 = 1 | 1289.47 | 1371.7 | 52.86
313.15 K, x1 = 0.0911 | 944.8 | 1255.1 | 0.79
313.15 K, x1 = 0.2023 | 1061.34 | 1285.5 | 1.48
313.15 K, x1 = 0.3029 | 1124.17 | 1304.8 | 3.01
313.15 K, x1 = 0.3998 | 1166.71 | 1319.6 | 4.73
313.15 K, x1 = 0.4994 | 1198.75 | 1330.3 | 7.48
313.15 K, x1 = 0.5953 | 1221.91 | 1338.4 | 12.06
313.15 K, x1 = 0.7029 | 1243.95 | 1347 | 17.91
313.15 K, x1 = 0.8009 | 1260.12 | 1352 | 23.51
313.15 K, x1 = 0.9012 | 1273.98 | 1355.8 | 31.45
313.15 K, x1 = 1 | 1285.47 | 1360.7 | 43.67
318.15 K, x1 = 0.0911 | 939.614 | 1238.2 | 0.75
318.15 K, x1 = 0.2023 | 1057.1 | 1270.6 | 1.4
318.15 K, x1 = 0.3029 | 1120.05 | 1290.8 | 2.75
318.15 K, x1 = 0.3998 | 1162.77 | 1306.4 | 4.26
318.15 K, x1 = 0.4994 | 1194.47 | 1317.7 | 6.65
318.15 K, x1 = 0.5953 | 1217.75 | 1326.2 | 10.56
318.15 K, x1 = 0.7029 | 1240.12 | 1335.4 | 15.52
318.15 K, x1 = 0.8009 | 1256.17 | 1340.7 | 20.16
318.15 K, x1 = 0.9012 | 1270.02 | 1344.7 | 26.58
318.15 K, x1 = 1 | 1281.47 | 1349.9 | 36.29
323.15 K, x1 = 0.0911 | 934.671 | 1221.3 | 0.71
323.15 K, x1 = 0.2023 | 1052.93 | 1255.8 | 1.32
323.15 K, x1 = 0.3029 | 1115.71 | 1276.9 | 2.54
323.15 K, x1 = 0.3998 | 1158.5 | 1293.4 | 3.88
323.15 K, x1 = 0.4994 | 1190.69 | 1305.2 | 5.95
323.15 K, x1 = 0.5953 | 1213.78 | 1314 | 9.33
323.15 K, x1 = 0.7029 | 1236.14 | 1323.8 | 13.54
323.15 K, x1 = 0.8009 | 1252.29 | 1329.5 | 17.4
323.15 K, x1 = 0.9012 | 1266.17 | 1333.7 | 22.66
323.15 K, x1 = 1 | 1277.48 | 1338.8 | 30.57
